Measurements taken from US9456589B2, “Elasmobranch-repelling compounds and methods of use” (priority 2005, dated 2016).
Where “and” joins values, the source holds several entries; their conditions need not be identical. Equal entries are not always repeated. Entries after “also recorded” stand apart in the source; their conditions may differ. Where two headings read alike, the source gives them in different places.

Tests used:
juvenile sharks = experiment: Initial tonic immobility assays, mouth delivery by micropipette or syringe; format: in vivo; settings: introduced to the mouth using a micropipette or syringe
nurse sharks = experiment: Tonic immobility, Syringe Assay; format: in vivo, C. cirratum
lemon sharks [1] = experiment: Tonic immobility, Micropipette Assay; format: in vivo, N. brevirostris; settings: for Comments (behavior observed): lemon / juvenile sharks, micropipette
Experimental: (§1) One bioassay used to observe and measure flight response is the tonic immobility test. Tonic immobility is a state of paralysis that typically occurs when a shark is subject to inversion of its body along the longitudinal axis. This state is called “tonic,” and the shark can remain in this state for up to 15 minutes thereby allowing researchers to observe effects of chemical repellents. The “tonic” state of the shark is first established by releasing seawater in proximity to the “tonic” shark with the same delivery instrument and at the same distance as a “test” repellent compound will be released. Some controls are released with a high flow rate (30 mL/sec) in order to establish that sharks are not awakened by a jet of fluid over their noses. Once behavioral controls are established, a compound or composition that may have a repelling effect is delivered to the shark. If the compound or composition engenders a flight response, the shark will awaken from the tonic state and rapidly attempt to flee the delivered repellent. Using this tonic immobility bioassay researches can quantify the strength of a repellent effect.
A fourth method of delivery was called the “Micropipette Assay” method of delivery. In this method, a very small dose (fraction of a mL) of a test substance was delivered directly into a shark's mouth. […] A response, such as a cough or other notable action of the shark, was usually noted when effective gustatory repellents were delivered directly into a shark's mouth while in tonic immobility.
The Micropipette Assay method has not proven to be a particularly effective method of assaying for a flight response in elasmobranchs. The Micropipette Assay method is, nevertheless, an excellent method for specifying that a gustatory response has occurred. It is effective for specifying a gustatory response because the micropipette delivery method allows direct delivery of an entire bolus of test substance into the mouth of the shark being tested.
Using a microliter syringe or microliter pipette, a bolus of test chemical can be directed precisely into one of the shark's nares, or its mouth. […] Olfactory repellents will terminate tonic immobility almost immediately when injected into a nare of the shark.
(§2) Lemon, nurse, blacktip and tiger sharks were placed in tonic immobility by inverting the shark's body along its longitudinal axis. […] The “tonic” state of each shark was first established by releasing a control of seawater in proximity to the shark with the same delivery instrument and at the same distance as the chemical repellent would later be delivered. In certain controls, sea water was released with a high flow rate (30 mL/sec) in order to establish that the sharks would not be awakened by a jet of fluid over their noses.
(§3) Once behavioral controls were established, the chemical repellent was delivered to the shark using the Hd Syringe Assay method, the Syringe 3/5/10 Assay method, the Bite Assay method or the Micropipette Assay method. […] If tonic immobility was terminated, the positive response was denoted as “Y.” If tonic immobility was not terminated but a behavior change within tonic immobility was noted, such as the opening of the mouth or a cough, the response was denoted as an “R” for reduced response. If no behavior change was observed, the negative response was denoted “N.”
Further because the Micropipette assays were often done serially on the same set of sharks, second and third doses of the repellent over time would be expected to evoke less of a reaction. Nevertheless, the small doses delivered to the shark in the Micropipette assay provide important data on whether a compound is a gustatory stimulant because the small dose may be delivered directly into the mouth of the shark. This eliminates any olfactory response that might be acting in concert with a gustatory response to terminate tonic immobility.

[2] = tested on: sharks (lemon, nurse, blacknose, blacktip pooled); experiment: Tonic immobility, Syringe Assay, summary over species; format: in vivo
Experimental: as §1
(§4) A second delivery method called the “Syringe Assay” method delivered a dose of 60 mL or more of a test chemical repellent from at least one foot, and up to as many as five feet, from a shark. The distance of delivery was determined based on the strength of the water current in the direction of the shark. Time from delivery of the test substance until response was observed, measured and recorded. The “Syringe” method allows a researcher to observe how a diffusing and diluting cloud of test chemical repellent affects the shark's behavior when the shark encounters the delivered cloud of test substance. The “Syringe” method requires relatively large doses because of the diffusion of the cloud over time and distance. Time from delivery to response is related to the size of the bolus delivered from the syringe, distance of the shark from the syringe and water current.
(§5) In the Syringe assay about 60 mL or more of valeraldehyde was delivered from one to as many as five feet from the shark depending on the water current. […] Time from delivery to response was related to the size of the bolus delivered from the syringe, distance of the shark from the syringe and water current.

lemon sharks [3] = experiment: Tonic immobility, Syringe Assay; format: in vivo, N. brevirostris
Experimental: as §1, §4, §2, §3, §5

sharks (species pooled) = experiment: Tonic immobility, total of delivery methods not including Micropipette assays; format: in vivo; settings: species and delivery methods pooled
Experimental: as §1
Table 1, which summarizes the data in Tables 14 and 15, evidences the gustatory repellent characteristics of methylbutanals. In 35 of 36 assays (combining columns “Y” and “R” under the column labeled “Total (Not including Micropipette Assays)” to arrive at a 97% effectiveness rate), including assays on lemon, nurse, tiger and blacktip sharks, the gustatory repellent activity of 3-methylbutanal was established. In 81% of assays, tonic immobility was fully terminated. […] In only a single assay did a shark not respond to treatment with 3-methylbutanal.

[4] = tested on: Caribbean reef sharks and blacknose sharks; experiment: Cage Assay on free-swimming sharks; format: in vivo, C. perezii, C. acronotus; settings: for Cage Y (repellent activity), trials of trials: 500 mL delivered at baited cage; for number of strikes at the baited cage / return of sharks / interactions with the baited cage after 10 minutes: 500 mL of 50% w/w in diethylene glycol monoethyl ether
Description: Another bioassay used to observe a flight response in sharks is a free-swimming test using a small metal cage containing bait. This assay is referred to as a “Cage Assay.” The cage with bait is suspended below a float in the water column. A ⅜ inch diptube is secured from the cage to the boat and carried chemical compounds to the proximity of the cage where the test substances were delivered. Sharks are drawn to the vicinity of the boat with chum. Sharks are observed to immediately bump and bite at the cage wherein bait was contained. The number of interactions between the sharks and the cage are recorded over time. Test chemical repelling substance is delivered to the vicinity of the cage through the diptube. The frequency of bumps and strikes by sharks against the cage is then monitored and recorded. If bumps and strikes by sharks cease for a period of time, that time period is also recorded. In the free-swim ring tests disclosed herein using a baited cage, the volume of test chemical repellent delivered into the vicinity of the cage was about 500 mL.
A series of chemical repellent tests on free-swimming Caribbean reef sharks (C. perezii) and blacknose sharks (C. acronotus) was performed in tropical waters. A small metal cage containing bait was suspended below a float in the water column. A ⅜″ ID HDPE diptube was secured from the cage to the boat, so that chemical compounds could be transported to the cage's proximity. Sharks were stimulated using bunker chum in bags.
The number of interactions was recorded using an underwater pole-camera.

[5] = tested on: sharks (lemon, nurse, tiger pooled); experiment: Tonic immobility, Hd Syringe Assay, summary over species; format: in vivo; settings: species pooled
Experimental: as §1
In Hd-Syringe Assays, the 3-methylbutanal was delivered to the shark's mouth and nares using a 3 mL hypodermic syringe fitted with a 22 gauge needle. The needle was held within 3 inches of the shark's mouth and the test repellent was slowly released from the syringe with a very fine plume in the water column. Any response was denoted. If a response occurred during a measurable time after delivery of the test chemical, the time between delivery and response was noted. If a response occurred immediately or the response occurred before a measurable time could be established, no time to response was noted.

Cc1ccccn1 [alpha-picoline, 2-methylpyridine]
result of initial tonic immobility assays (juvenile sharks): terminated tonic immobility

COc1ccc(C=O)cc1OC [veratraldehyde]
Syringe assays with no response (nurse sharks): no response
Micropipette assays with a response (lemon sharks [1]; lemon sharks): eight of twelve
Micropipette assays with no response (lemon sharks [1]; lemon sharks): four
Syringe N (no response), trials of trials [2]: one of seven and 1/7
Syringe Y (termination of tonic immobility), trials of trials [2]: six of seven and six of six and 6/7

CCCC=O [Butyraldehyde, butyraldehyde]
Syringe assays terminating tonic immobility (text) (lemon sharks [3]): resulting in termination of tonic immobility
Syringe assays terminating tonic immobility (text) (nurse sharks): two
Syringe assays with no response (nurse sharks): one
Syringe Y (termination of tonic immobility), trials of trials [2]: 4/4
Syringe Y (termination of tonic immobility), trials of trials ([2]; listed as butyraldehyde): 4 of 5
Total (Not including Micropipette assays / Effective Delivery Methods) Y, trials of trials (sharks (species pooled)): 4/4
Total Y, percent of trials (sharks (species pooled)): 100%

Cc1ccncc1 [gamma-picoline, 4-methylpyridine]
result of initial tonic immobility assays (juvenile sharks): terminated tonic immobility

Cc1cccc(C)n1 [lutidine]
result of initial tonic immobility assays (juvenile sharks): terminated tonic immobility

CC(=O)/C=C/C1C(C)=CCCC1(C)C (stereo not drawn) [Ionone, alpha-ionone]
Cage Y (repellent activity), trials of trials [4]: 1/1
number of strikes at the baited cage ([4]; listed as alpha-ionone): reduced
return of sharks / interactions with the baited cage after 10 minutes ([4]; listed as alpha-ionone): interactions continued after a 10 minute period
number of strikes at the baited cage ([4]; listed as ionone): decrease in the number of strikes
return of sharks / interactions with the baited cage after 10 minutes ([4]; listed as ionone): lull in feeding for 10 minutes

CCCCCCCCC=O [nonanal]
Syringe assays terminating tonic immobility (text) (lemon sharks [3]): terminated
Syringe Y (termination of tonic immobility), trials of trials [2]: 1/1

Cc1cccnc1 [3-methylpyridine]
Hd-Syringe Y (termination of tonic immobility), trials of trials [5]: three of three and 3/3
result of initial tonic immobility assays (juvenile sharks): terminated tonic immobility

O=Cc1ccc2c(c1)OCO2 [Piperonal, piperonal]
Cage Y (repellent activity), trials of trials [4]: 1/1
number of strikes at the baited cage [4]: decrease in the number of strikes; also recorded: dramatically reduced
return of sharks / interactions with the baited cage after 10 minutes [4]: did not return; also recorded: interactions ceased
Total (Not including Micropipette assays / Effective Delivery Methods) Y, trials of trials (sharks (species pooled)): 1/1

Cc1cc(C)nc(C)c1 [collidine]
result of initial tonic immobility assays (juvenile sharks): terminated tonic immobility

CCCCCCC=O [heptanal]
Syringe assays with no response (lemon sharks [3]): no response
Syringe N (no response), trials of trials [2]: no response and 1/1

CC(=O)C=C(C)C [mesityl oxide]
Syringe assays terminating tonic immobility (text) (lemon sharks [3]): terminated
Syringe Y (termination of tonic immobility), trials of trials [2]: 1/1

Cc1cccnc1N [2-amino-3-picoline 95%, 2-amino-3-picoline]
Comments (behavior observed) (lemon sharks [1]): violent seizure; also recorded: VIOLENT/SEIZURE
Comments (behavior observed) (lemon sharks [1]; listed as aminopicoline): violent responses
Micropipette assays terminating tonic immobility (lemon sharks [1]; lemon sharks): one
Micropipette assays with a response (lemon sharks [1]; lemon sharks): two of two

Cc1ncccc1N [3-amino-2-picoline]
result of initial tonic immobility assays (juvenile sharks): terminated tonic immobility

CCCCCCCCCC=O [decanal]
Syringe assays terminating tonic immobility (text) (lemon sharks [3]): terminated
Syringe assays terminating tonic immobility (text) (nurse sharks): terminated
Syringe Y (termination of tonic immobility), trials of trials [2]: 1/1

COc1cc(CCC(C)=O)ccc1O [Zingerone, zingerone]
Cage Y (repellent activity), trials of trials [4]: 1/1
number of strikes at the baited cage [4]: decrease in the number of strikes; also recorded: reduced
return of sharks / interactions with the baited cage after 10 minutes [4]: lull in feeding for 10 minutes; also recorded: interactions continued after a 10 minute period

Cc1cc(=O)n(-c2ccccc2)n1C [antipyrine solution, antipyrine]
Micropipette assays with a response (lemon sharks [1]; lemon sharks): a response was observed; also recorded: evoked a response in one assay
Micropipette assays with no response (lemon sharks [1]; lemon sharks): no response; also recorded: did not evoke a response in another

CCCCCCCC=O [octanal]
Syringe assays terminating tonic immobility (text) (lemon sharks [3]): terminated
Syringe Y (termination of tonic immobility), trials of trials [2]: 1/1

Cc1ccc(C=O)cc1 [Tolualdehyde, p-tolualdehyde]
Syringe assays terminating tonic immobility (text) (lemon sharks [3]; listed as p-tolualdehyde): termination of tonic immobility
Syringe assays terminating tonic immobility (text) (lemon sharks [3]; listed as tolualdehyde): terminated
Syringe Y (termination of tonic immobility), trials of trials [2]: 1/1

CC(C)c1ccc(C=O)cc1 [Cuminaldehyde, cuminaldehyde]
Syringe assays terminating tonic immobility (text) (lemon sharks [3]): resulted in termination of tonic immobility
Syringe Y (termination of tonic immobility), trials of trials [2]: 1/1
Syringe Y (termination of tonic immobility), trials of trials ([2]; listed as cuminaldehyde): terminated
Total (Not including Micropipette assays / Effective Delivery Methods) Y, trials of trials (sharks (species pooled)): 1/1
